Values joined by “and” are separate entries in the source; they are usually repeats but may differ in a detail not shown here. Identical values can stand only once. “Also recorded” adds a separate entry of the source.
Assays:
[1] = CNS toxicity/encephalopathy in patients on ifosfamide without methylene blue; type: in vivo, human
Description: (§1) A patient diagnosed with advanced metastatic osteosarcoma began a five day chemotherapy regime. Treatment consisted of a total dosage of 12 g/m^2 ifosfamide with 80% (by weight, based on the weight of ifosfamide) mesna and adriamycin (65 mg/m^2) divided into two doses. They also received ZOFRAN™ brand ondansetron (antiemetic), 8 mg, by intravenous injection and 200 mg pyritinol three times per day orally. All parenteral medicaments were given in a total of 2 liters 5% glucose solution.
(§2) In 1990, a patient with metastatic leiomyosarcoma was treated for lung metastases with ifosfamide, adriamycin and dacarbazine. They had three cycles of therapy at the time.
(§3) In the second and third cycles, their dose of ifosfamide was 2 g/m^2 for three days.
(§4) At the request of the inventors, an independent clinical analysis was performed at the Northern Centre for Cancer Treatment, Newcastle Upon Tyne, United Kingdom, on a patient using a combintation of ifosfamide and methylene blue. A patient was diagnosed with adenocarcinoma of the oesophagus. They began chemotherapeutic treatment and was administered ifosfamide, Mitomycin C, and cisplatin. […] The patient eventually recovered. Upon administration of a third cycle of treatment, the patient was also given a prophylactic dosage of methylene blue.

[2] = GCMS analysis of urine of patient receiving ifosfamide and methylene blue; type: in vivo, human
Description: 100 ml of urine from a patient having had received methylene blue (300 mg/day) and ifosfamide (3 mg/kg daily) was analysed. The urine was refluxed for 30 minutes with 2M hydrochloric acid in ethanol (50 ml). After sufficient heating, 50 mls each of H2 O and […] hexane were added, the mixture shaken. The organic phase was then reduced to dryness in vacuo on a rotary evaporator. The dry residue was reconstituted in 1M hexane (10 ml) and 1 μl aliquots were submitted to gas chromatography-mass spectrometry analysis (GCMS). A 16 meter OV-17 capillary column was used with a temperature programme set for 40° C. for 1 minute, 5° C. per minute gradient to 250° C. and 250° C. for 10 minutes. Electron impact mass spectra were obtained on the resulting chromatographic peaks of interest (See A, B, and C of FIG. 1). These peaks were analysed through a Fisons Autospec Q MASS LIB GCMS computer library of mass spectra developed by the Department of Organic Chemistry, University of Berne, Switzerland of known organic compounds (FIGS. 2-4).

[3] = system: non small cell lung cancer; assay: Tumour response to chemotherapy, non small cell lung cancer patients; type: in vivo, human; conditions: Example 4; ifosfamide, VP-16, methylene blue; four cycles
Description: (§5) A patient was diagnosed with non small cell lung cancer. They later developed brain, lung and mediastinal and bone metastases. The course of treatment included surgery, irradiation of the brain and chemotherapy. Dosage amounts for chemotherapy were as follows: ifosfamide (1 g/m^2) given intravenously for days 1-3; mesna 60% of intravenous ifosfamide dosage plus 800 mg orally twice daily for days 1-3; VP-16 (100 mg) given orally for days 1-8 and methylene blue (50 mg) was administered orally as a loading dose on day 1, with 3×50 mg administered orally on days 1-4.
(§6) A patient was diagnosed with non small cell lung cancer with extensive mediastinal lymphnode metastases. They were originally prescribed a course of cisplatinum, VP-16 and velbe. […] Oral ifosfamide, VP-16, and methylene blue was then ordered, using the same dosage requirements as described in Example 4 above.

metastatic osteosarcoma = assay: Tumour response to chemotherapy, osteosarcoma patient; type: in vivo, human; conditions: Example 2; ifosfamide/adriamycin chemotherapy with methylene blue prophylaxis
Description: as §1
(§7) After three weeks from the end of the first cycle, the patient who was the subject of Example 1 again was given the same chemotherapeutic regime, except that this time they received 50 mg oral capsules of methylene blue prophylactically three times a day for the full course of treatment.

[4] = Nitrobenzyl pyridine (NBP) test of urine for alkylating metabolites of ifosfamide; type: in vivo, human
small cell lung cancer = assay: Tumour response to chemotherapy, small cell lung cancer patients; type: in vivo, human
Description: (§8) They received six cycles of ifosfamide treatment using the identical dosage requirements as in Example 4.
(§9) A patient was diagnosed with extensive small cell lung cancer with pleural effusion. Patient was prescribed ifosfamide/Vp-16/methylene blue treatment.

[5] = intravenous ifosfamide; Martindale, 28th Edition, 1982; cited from earlier work
[6] = system: metastatic leiomyosarcoma; assay: Tumour response to chemotherapy, leiomyosarcoma patient; type: in vivo, human; conditions: Example 3; 1990, ifosfamide, adriamycin and dacarbazine, three cycles
Description: as §2, §3

[7] = Therapeutic rescue of ifosfamide encephalopathy with methylene blue in a patient; type: in vivo, human; conditions: Example 1
Description: as §1
50 mg methylene blue, formulated at 2% w/v in water for injections, was administered by slow intravenous injection.
About 4 hours later, the 50 mg methylene blue dose was repeated to consolidate the earlier treatment.

plasma amine oxidase = assay: Inhibition of plasma amine oxidase (2-chlorethylamine oxidation to chloracetaldehyde, GC); type: biochemical; conditions: methylene blue 50 μM; 2-chlorethylamine 100 μg/ml; human or bovine plasma, 36° C., 1 hour
Description: Human or bovine plasma (2.0 ml) containing 2-chlorethylamine (100 μg/ml) was incubated in a shaking water bath at 36° C. for 1 hour. Aliquots (5 μl) were directly injected in to a Tenax packed gas chromatographic column maintained at 120° C. in a Perkin Elmer 3920B gas chromatograph. The product of 2-chlorethylamine oxidation by plasma amine oxidase, 2-chloracetaldehyde, was eluted at 9 minutes retention time. External calibration curves were used to determine concentrations of resulting chloracetaldehyde. […] The methylene blue is thus able to reduce the formation of chloracetaldehyde from 2-chlorethylamine by the plasma to 20% of that observed in the absence of methylene blue.

[8] = Prophylaxis of ifosfamide encephalopathy with methylene blue in patients; type: in vivo, human
Description: as §7
With the following treatment, they received four 50 mg doses of oral methylene blue. Their cytotoxic chemotherapy comprised three 3.2 g doses of ifosfamide (6 g/m^2 total dose) split over 3 days. The ifosfamide was administered as a continuous infusion with mesna. They also received 50 mg/m^2 adriamycin in two separate doses on days 2 and 3. Additionally,they received pyritinol (200 mg) twice per day on each day of the four day treatment.
as §5, §8, §6
A patient with non small cell lung cancer with involvment of the thoracic wall and retroperitoneal disease began one cycle of ifosfamide/methylene blue chemotherapy.
as §9, §4

[9] = Urinary excretion of pyritinol and its metabolites in patients; type: in vivo, human
Description: It is believed that pyritinol elevates intracellular thiol concentrations thereby detoxifying the chloroethyl metabolites formed by ifosfamide. Pyritinol is metabolised by reduction of its centralised disulfide bond, presumably by glutathione reductase or a similar enzyme using GSH as its cofactor. Pyritinol is also known to be metabolised by S-methylation and S-oxidation into the following metabolites: [drawing 12] These metabolites are the excretable forms of pyritinol in urine. In patients not receiving ifosfamide treatment, virtually 100% of pyritinol will be excreted in its metabolised form into the urine. […] As was previously mentioned, without GSH as a cofactor, glutathione reductase is unable to reduce pyritinol into its metabolised form. It is therefore a further aspect of this invention to use the excretion of unmetabolised pyritinol as a biochemical marker for the onset of encephalopathy upon administration of ifosfamide.

[10] = Example 5, ifosfamide as in Example 4, six cycles
[11] = Example 3, ifosfamide + methylene blue, first cycle

With O=P1(NCCCl)OCCCN1CCCl (stereo not drawn) [ifosfamide, N,3-bis(2-chloroethyl)tetrahydro-2H-1,3,2-oxazaphosphorin-2-amine 2-oxide] the “signs of encephalopathy on ifosfamide” value ([1]; Example 1, 12 g/m^2 total ifosfamide, mesna, adriamycin, day three and next morning, before methylene blue) was “displayed signs of encephalopathy-type hallucinations; also recorded: still drowsy, disorientated and confused”, the encephalopathy on ifosfamide ([1]; Example 3, 1990, first cycle, ifosfamide, adriamycin and dacarbazine) was “mild encephalopatic signs (such as confusion and amnesia) short of psychosis” and the encephalopathy on ifosfamide ([1]; Example 3, 1990, second cycle, ifosfamide 2 g/m^2 for three days) was “psychotic and somnolent”. For the same compound, the encephalopathy on ifosfamide ([1]; Example 3, 1990, third cycle, ifosfamide 2 g/m^2 for three days) was “severely psychotic and had hallucinations which continued not only after the end of the cycle but also after discharge from hospital”, the encephalopathy on ifosfamide ([1]; Example 9, ifosfamide, Mitomycin C and cisplatin, following second cycle) was “developed ifosfamide encephalopathy, becoming drowsy and confused” and the “urinary metabolites identified by GCMS” value ([2]; Example 10, methylene blue 300 mg/day and ifosfamide 3 mg/kg daily, urine refluxed with HCl in ethanol) was 2,2,2-trichlorethanal and 3-chloroproprionic acid ethyl ester and trichloracetic acid ethyl ester. The “novel urinary metabolites among patients treated with ifosfamide and methylene blue” value ([2]; patients treated with both ifosfamide and methylene blue) was 2,2,2-trichlorethanol and trichloracetic acid and 3-chlorproprionic acid, the outcome [3] was “died 6 months later due to tumour progression” and the “lung metastases (lung scan)” value (metastatic osteosarcoma) was “lung metastases were almost gone”. For the same compound, the “NBP test of urine for alkylating metabolites of ifosfamide” value ([4]; Example 1, first cycle) was “positive”, the “NBP test of urine for alkylating metabolites” value ([4]; Example 2, second cycle, with methylene blue) was “present” and the “Lambert/Eaton Syndrome” value (small cell lung cancer; [10]) was “rapidly improved”. For the same compound, the remission (small cell lung cancer; [10]) was “good partial remission”, the remission (small cell lung cancer; Example 8, ifosfamide/Vp-16/methylene blue, after six cycles) was “partial remission of the lung, lymphnode and liver metastases” and the remission (small cell lung cancer; Example 8, ifosfamide/Vp-16/methylene blue, after three cycles) was “partial remission in the primary and lymphnode metastases”. For the same compound, the “patients experiencing CNS side effects, especially confusion and lethargy” value [5] was “about 10%” and the remission [6] was “complete remission of the lung metastases”.

With CN(C)c1ccc2nc3ccc(N(C)C)cc3[s+]c2c1.[Cl-] [methylene blue, 3,7-bis(dimethylamino)phenothiazin-5-ium chloride] the “symptoms of encephalopathy next day” value ([7]; 50 mg dose repeated about 4 hours later, next day) was “no signs of confusion or other symptoms of encephalopathy”, the “malaise and nausea after methylene blue” value ([7]; 50 mg slow intravenous injection, after 1 hour) was “The malaise and nausea which they had previously experienced were gone” and the “patient's condition after methylene blue” value ([7]; 50 mg slow intravenous injection, after 1 hour, continued ifosfamide infusion) was “much calmer, coherent and able to articulate the fearful nature of their hallucinations”. The “sleep/condition after repeated dose” value ([7]; second 50 mg dose, that night and next day) was “slept well and was much better the next day”, the “formation of chloracetaldehyde from 2-chlorethylamine by the plasma, relative to that in absence of methylene blue” value (plasma amine oxidase) was 20% and the “inhibition of plasma amine oxidase by methylene blue” value (plasma amine oxidase) was 80%. The “disturbed nights during treatment” value ([8]; Example 2, 50 mg oral capsules three times a day prophylactically) was “no disturbed nights”, the “symptoms of encephalopathy during prophylactic treatment” value ([8]; Example 3, four 50 mg oral doses, ifosfamide 6 g/m^2 total over 3 days, mesna, adriamycin, pyritinol, first cycle) was “no symptoms of encephalopathy were recorded during treatment” and the episodes of vomiting [8, 11] was “one”. The malaise [8, 11] was “no malaise”, the “signs of encephalopathy during prophylactic treatment” value ([8]; Example 4, 50 mg oral loading dose day 1, 3×50 mg oral days 1-4, four cycles) was “No signs of encephalopathy after four cycles” and the “signs of encephalopathy during prophylactic treatment” value ([8]; Example 5, dosage as in Example 4, six cycles) was “no signs of encephalopathy”. The “signs of encephalopathy during prophylactic treatment” value ([8]; Example 6, oral ifosfamide, VP-16 and methylene blue, dosage as in Example 4, six cycles) was “Absolutely no signs of encephalopathy”, the “CNS toxicity during prophylactic treatment” value ([8]; Example 7, dosage as in Example 4, one cycle) was “No CNS toxicity was exhibited” and the “symptoms associated with encephalopathy during prophylactic treatment” value ([8]; Example 8, dosage as in Examples 4-7, six cycles) was “never developed the symptoms associated with encephalopathy”. The “signs of encephalopathy during prophylactic treatment” value ([8]; Example 9, prophylactic methylene blue in third cycle, ifosfamide, Mitomycin C, cisplatin) was “no further signs of encephalopathy” and the “patient's condition during prophylactic treatment” value ([8]; Example 9, third cycle) was “remained conscious and alert throughout treatment”.

For Cc1ncc(CSSCc2cnc(C)c(O)c2CO)c(CO)c1O [pyritinol], the “form of pyritinol excreted in urine upon addition of methylene blue” value ([9]; ifosfamide plus methylene blue, leucomethylene blue or similar compound) was “metabolised forms of pyritinol will subsequently be excreted in the urine” and the “form of pyritinol excreted in urine upon ifosfamide” value ([9]; upon administration of ifosfamide) was “solely in its unmetabolised non-reduced form”.
